From US7875607B2, “7,8-bicycloakyl-chroman derivatives” (Ampere Life Sciences, Inc., priority 2004, dated 2011)

How the values were obtained:
[1] = biological target: T1, human recombinant 5-lipoxygenase (Homo sapiens, UniProt P09917); test: 5-Lipoxygenase enzyme assay; assay type: biochemical; conditions: 70 μM arachidonic acid, pH 7.4
T1 construct: purchased Cayman 60402
T1 sequence (P09917 1-674): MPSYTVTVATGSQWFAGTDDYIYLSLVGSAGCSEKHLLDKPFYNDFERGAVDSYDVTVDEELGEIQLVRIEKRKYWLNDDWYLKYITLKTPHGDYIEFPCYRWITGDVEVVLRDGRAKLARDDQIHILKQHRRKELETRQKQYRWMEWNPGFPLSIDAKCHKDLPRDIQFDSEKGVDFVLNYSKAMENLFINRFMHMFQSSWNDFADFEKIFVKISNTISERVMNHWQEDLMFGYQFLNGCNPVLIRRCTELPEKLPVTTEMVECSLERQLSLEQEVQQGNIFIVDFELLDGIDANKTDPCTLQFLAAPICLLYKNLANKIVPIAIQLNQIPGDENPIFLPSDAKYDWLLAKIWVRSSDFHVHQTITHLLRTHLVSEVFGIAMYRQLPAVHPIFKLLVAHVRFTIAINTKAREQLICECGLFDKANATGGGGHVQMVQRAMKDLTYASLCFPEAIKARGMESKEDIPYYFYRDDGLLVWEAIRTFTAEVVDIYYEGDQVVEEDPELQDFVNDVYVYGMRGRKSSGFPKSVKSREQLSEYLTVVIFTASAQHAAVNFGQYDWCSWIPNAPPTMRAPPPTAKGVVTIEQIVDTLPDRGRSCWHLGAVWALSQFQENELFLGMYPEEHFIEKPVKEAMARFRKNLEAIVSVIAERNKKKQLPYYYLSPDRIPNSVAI
In short: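 Human recombinant 5-LO (0.5 U) with compound in 50 mM Tris-HCl pH 7.4 reacted with 70 μM arachidonic acid for 10 min at room temperature. Hydroperoxide formation was read via FOX xylenol orange complex at 620 nm after 1 h; compounds at 5 concentrations from 10 μM, in triplicate.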

[2] = test system: LTB4 release from MPRO cell line; test: LTB4-cell assay; assay type: cell-based; conditions: Mus musculus; differentiated MPRO cells, 1 μM A23187, 1 hour; read-out: EC50, inhibition of LTB4
In short: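 Mouse MPRO cells differentiated 72 hours with 10 μM all-trans retinoic acid, then stimulated 1 hour at 37° C with 1 μM A23187 plus compound (5 concentrations from 10 μM, quadruplicate). Supernatant LTB4 measured by competitive EIA; unstimulated cells as negative control.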

[3] = test system: LTB4 production in heparinized whole blood; test: Inhibition of LTB4 production in blood; assay type: cell-based, rat or mouse; conditions: 20 μM A23187, read-out: EC50, protection against LTB4
In short: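 Heparinized rat or mouse whole blood preincubated with test agent 10 min at 37°C, then stimulated with calcium ionophore A23187 (20 μM final) for 30 min. Plasma methanol-precipitated and LTB4 measured by EIA; percent inhibition versus vehicle used to derive IC50.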

SMILES	IC50 [1] [µM]	EC50 [2] [µM]	EC50 [3] [µM]
CC1(C)CCc2cc(O)c3c(c2O1)C1CCC3CC1 [2,2-Dimethyl-3,4,7,8,9,10-hexahydro-7,10-ethano-2H-benzo[h]chromen-6-ol]	≤ 5	≤ 5	≤ 10
CC1(C)C=Cc2cc(O)c3c(c2O1)C1CCC3CC1 [2,2-Dimethyl-7,8,9,10-tetrahydro-7,10-ethano-2H-benzo[h]chromen-6-ol]	≤ 5	≤ 5	–
CC1(CCCCl)CCc2cc(O)c3c(c2O1)C1CCC3C1 (stereo not shown) [2-(3-Chloro-propyl)-2-methyl-3,4,7,8,9,10-hexahydro-7,10-methano-2H-benzo[h]chromen-6-ol]	≤ 5	≤ 5	≤ 10
CC(C)CSCCCC1(C)CCc2cc(O)c3c(c2O1)C1CCC3C1 (stereo not shown) [2-(3-isobutylsulfanyl-propyl)-2-methyl-3,4,7,8,9,10-hexahydro-7,10-methano-2H-benzo[h]chromen-6-ol]	–	≤ 5	≤ 10
CC1(CCCSc2nccs2)CCc2cc(O)c3c(c2O1)C1CCC3C1 (stereo not shown) [2-Methyl-2-[3-(thiazol-2-ylsulfanyl)-propyl]-3,4,7,8,9,10-hexahydro-7,10-methano-2H-benzo[h]chromen-6-ol]	≤ 5	≤ 5	≤ 10
